US11317627B2, “Soybean disease control composition and soybean disease control method” (priority 2015, dated 2022)

Experiments:
[1] = tested on: soybean rust fungus (Phakopsora pachyrhizi); test: Test on spore germination inhibition against soybean rust fungus; assay type: cell-based; conditions: single use, 25° C., 5 hours
Description: Test Example 1: Test on Spore Germination Inhibition Against Soybean Rust Fungus (Phakopsora pachyrhizi)
A spore suspension of soybean rust fungus was added to an aqueous chemical solution prepared so as to contain each test compound in a predetermined concentration and the whole was kept in a moist chamber at 25° C. for 5 hours. Thereafter, the presence of spore germination was investigated using a microscope, the spore germination rate was determined, and the spore germination inhibition rate was determined according to the following calculation formula. Spore germination inhibition rate=(1−a/b)×100 • a: spore germination rate in treated section, b: spore germination rate in untreated section Colby's formula=(X+Y)−XY/100 • X: spore germination inhibition rate in single use of ingredient (a) • Y: spore germination inhibition rate in single use of ingredient (b)
Based on the obtained spore germination inhibition rate, the theoretical value (spore germination inhibition rate) was calculated using the Colby's formula. The theoretical value according to the Colby's formula was shown in brackets ( ) in Tables 1 to 6.
In the case where the experimental value is higher than the theoretical value, the composition of the present invention has a synergistic effect on soybean rust fungus.

Rhizoctonia solani = test: Test on mycelial growth inhibition effect against soybean Rhizoctonia rot; assay type: cell-based; conditions: single use, PSA, 20° C., 2 days
Description: Test Example 2: Test on Mycelial Growth Inhibition Effect Against Soybean Rhizoctonia Rot (Rhizoctonia solani)
A colony (4 mmϕ) obtained by preculture was inoculated to PSA containing a chemical agent of a predetermined concentration and, after culture at a room temperature of 20° C. for 2 days, the diameter of the grown colony was measured to determine a mycelial growth inhibition rate. Mycelial growth inhibition rate=(1−A/B)×100 • A: diameter of colony in treated section, B: diameter of colony in untreated section Colby's formula=(X+Y)−XY/100 • X: mycelial growth inhibition rate in single use of ingredient (a) • Y: mycelial growth inhibition rate in single use of ingredient (b)
Based on the obtained experimental value of the mycelial growth inhibition rate, the theoretical value of the mycelial growth inhibition rate was calculated using the Colby's formula. The theoretical value according to the Colby's formula was shown in brackets ( ) in Tables 7 to 11.
In the case where the experimental value is higher than the theoretical value, the composition of the present invention has a synergistic effect on Rhizoctonia solani.

[2] = Phakopsora pachyrhizi, read-out: Spore germination inhibition rate
[3] = Phakopsora pachyrhizi, 0.1 ppm, read-out: Spore germination inhibition rate
[4] = Rhizoctonia solani, 48 h, 0.1 ppm, read-out: Mycelial growth inhibition rate
[5] = Rhizoctonia solani, 48 h, 1 ppm, read-out: Mycelial growth inhibition rate
[6] = Rhizoctonia solani, 48 h, read-out: Mycelial growth inhibition rate

Q: Which results are given for Cn1cc(C(=O)Nc2cccc3c2[C@@H]2CC[C@H]3C2=C(Cl)Cl)c(C(F)F)n1 (racemic) [Benzovindiflupyr, benzovindiflupyr]?
A: Spore germination inhibition rate ([1]; 0.1 ppm): 45%; Spore germination inhibition rate ([1]; 1 ppm): 52%; Mycelial growth inhibition rate (Rhizoctonia solani; 0.1 ppm): 71%

Q: Which inhibition at 0.01 ppm [1, 2] does the source give for Fc1ccc([C@]2(Cn3cncn3)O[C@H]2c2ccccc2Cl)cc1 (racemic) [Epoxiconazole, epoxiconazole] here?
A: Its inhibition at 0.01 ppm is 1%.

Q: And the inhibition at 0.1 ppm [1, 3]?
A: Its inhibition at 0.1 ppm is 5%.

Q: What about the inhibition at 0.1 ppm (Rhizoctonia solani; [4]) of the same compound?
A: Its inhibition at 0.1 ppm is 39%.

Q: What about the inhibition at 1 ppm (Rhizoctonia solani; [5]) of the same compound?
A: The inhibition at 1 ppm was 83%.

Q: Which results are given for CC(C1CC1)C(O)(Cn1cncn1)c1ccc(Cl)cc1 (stereo not shown) [Cyproconazole, cyproconazole]?
A: inhibition at 0.1 ppm [1, 3]: 9%; inhibition at 0.01 ppm (Rhizoctonia solani; [6]): 7%; inhibition at 0.1 ppm (Rhizoctonia solani; [4]): 34%; inhibition at 1 ppm (Rhizoctonia solani; [5]): 80%

Q: For O=[N+]([O-])c1cc(C(F)(F)F)c(Cl)c([N+](=O)[O-])c1Nc1ncc(C(F)(F)F)cc1Cl [Fluazinam, fluazinam], which inhibition at 0.1 ppm [1, 3] is on record?
A: Its inhibition at 0.1 ppm is 27%.

Q: And the inhibition at 1 ppm ([1]; Phakopsora pachyrhizi, 1 ppm, read-out: Spore germination inhibition rate)?
A: Its inhibition at 1 ppm is 71%.

Q: What about the inhibition at 0.001 ppm (Rhizoctonia solani; Rhizoctonia solani, 48 h, 0.001 ppm, read-out: Mycelial growth inhibition rate) of the same compound?
A: The inhibition at 0.001 ppm was 2%.

Q: What about the inhibition at 0.01 ppm (Rhizoctonia solani; [6]) of the same compound?
A: Its inhibition at 0.01 ppm is 14%.

Q: What about the inhibition at 0.1 ppm (Rhizoctonia solani; [4]) of the same compound?
A: Its inhibition at 0.1 ppm is 73%.

Q: What about the inhibition at 1 ppm (Rhizoctonia solani; [5]) of the same compound?
A: Its inhibition at 1 ppm is 88%.

Q: What about the “Mycelial growth inhibition rate” value (Rhizoctonia solani; 0.1 ppm) of the same compound?
A: Its value is 78%.

Q: And the “Mycelial growth inhibition rate” value (Rhizoctonia solani; 1 ppm)?
A: Its value is 92%.

Q: What does the source list for Cn1cc(C(=O)Nc2ccccc2-c2cc(F)c(F)c(F)c2)c(C(F)F)n1 [Fluxapyroxad, fluxapyroxad]?
A: Spore germination inhibition rate ([1]; 1 ppm): 41%; Mycelial growth inhibition rate (Rhizoctonia solani; 0.1 ppm): 42%

Q: For OC(Cc1ccccc1Cl)(Cn1nc[nH]c1=S)C1(Cl)CC1 (stereo not shown) [Prothioconazole, prothioconazole], which inhibition at 0.01 ppm [1, 2] is on record?
A: Its inhibition at 0.01 ppm is 37%.

Q: What about the inhibition at 0.1 ppm [1, 3] of the same compound?
A: The inhibition at 0.1 ppm was 89%.

Q: CC(C)(C)C(O)(CCc1ccc(Cl)cc1)Cn1cncn1 (stereo not shown) [Tebuconazole, tebuconazole] was tested. Which inhibition at 0.01 ppm [1, 2] did it give?
A: Its inhibition at 0.01 ppm is 12%.

Q: And the inhibition at 0.1 ppm [1, 3]?
A: The inhibition at 0.1 ppm was 88%.

Q: What about the inhibition at 0.01 ppm (Rhizoctonia solani; [6]) of the same compound?
A: The inhibition at 0.01 ppm was 17%.

Q: What about the inhibition at 0.1 ppm (Rhizoctonia solani; [4]) of the same compound?
A: The inhibition at 0.1 ppm was 31%.

Q: What about the inhibition at 1 ppm (Rhizoctonia solani; [5]) of the same compound?
A: Its inhibition at 1 ppm is 70%.
